Test [1] addresses T1, human TLR7 (Homo sapiens, UniProt Q9NYK1).
T1 construct: host or cells: HEK293 (HEK-Blue hTLR7)
T1 sequence (Q9NYK1 27-1049): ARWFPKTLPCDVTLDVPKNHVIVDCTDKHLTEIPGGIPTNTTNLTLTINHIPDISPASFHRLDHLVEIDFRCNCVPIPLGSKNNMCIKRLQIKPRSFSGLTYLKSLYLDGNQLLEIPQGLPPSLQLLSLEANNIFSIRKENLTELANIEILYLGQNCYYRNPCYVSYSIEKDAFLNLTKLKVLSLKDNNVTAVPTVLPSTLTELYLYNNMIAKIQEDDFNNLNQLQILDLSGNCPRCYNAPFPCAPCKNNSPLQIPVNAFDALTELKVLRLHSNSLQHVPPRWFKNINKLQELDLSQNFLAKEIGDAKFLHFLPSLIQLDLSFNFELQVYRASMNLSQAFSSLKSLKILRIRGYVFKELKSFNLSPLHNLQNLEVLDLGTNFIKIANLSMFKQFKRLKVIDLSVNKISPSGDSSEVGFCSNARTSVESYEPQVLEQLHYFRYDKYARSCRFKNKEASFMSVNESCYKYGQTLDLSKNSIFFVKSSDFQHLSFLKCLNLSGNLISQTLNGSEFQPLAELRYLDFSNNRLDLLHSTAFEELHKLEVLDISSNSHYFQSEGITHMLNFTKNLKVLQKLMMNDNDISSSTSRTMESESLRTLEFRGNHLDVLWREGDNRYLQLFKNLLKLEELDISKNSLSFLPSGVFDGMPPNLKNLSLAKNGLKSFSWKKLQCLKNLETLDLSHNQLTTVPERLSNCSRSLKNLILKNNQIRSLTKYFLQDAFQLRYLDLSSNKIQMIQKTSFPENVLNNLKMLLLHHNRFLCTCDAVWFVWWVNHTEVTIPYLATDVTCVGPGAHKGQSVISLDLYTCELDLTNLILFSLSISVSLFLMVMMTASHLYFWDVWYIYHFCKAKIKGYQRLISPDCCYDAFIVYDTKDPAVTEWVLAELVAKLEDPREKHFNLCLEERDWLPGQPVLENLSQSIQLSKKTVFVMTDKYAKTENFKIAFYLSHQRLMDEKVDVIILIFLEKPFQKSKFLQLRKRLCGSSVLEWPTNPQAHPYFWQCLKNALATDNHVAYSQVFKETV
Put plainly: HEK293-Blue-hTLR-7 cells assay. The test is classed as cell-based. The following applies: HEK293-Blue-hTLR7 cells, R848 stimulation, 20 hrs, SEAP reporter; read-out: HEK/hTLR7 IC50. As for the experimental part:
The following tests were carried out in order to determine the activity of the compounds of formula (I) and (Ia) in HEK293-Blue-hTLR-7/8/9 cells assay.
HEK293-Blue-hTLR-7 cells assay:
A stable HEK293-Blue-hTLR-7 cell line was purchased from InvivoGen (Cat. #: hkb-htlr7, San Diego, Calif., USA). These cells were originally designed for studying the stimulation of human TLR7 by monitoring the activation of NF-κB. A SEAP (secreted embryonic alkaline phosphatase) reporter gene was placed under the control of the […] minimal promoter fused to five NF-κB and AP-1-binding sites. The SEAP was induced by activating NF-κB and AP-1 via stimulating HEK-Blue hTLR7 cells with TLR7 ligands. Therefore, the reporter expression was declined by TLR7 antagonist under the stimulation of a ligand, such as R848 (Resiquimod), for incubation of 20 hrs. The cell culture supernatant SEAP reporter activity was determined using QUANTI-Blue™ kit (Cat. #: rep-qb1, Invivogen, San Diego, Calif., USA) at a wavelength of 640 nm, a detection medium that turns purple or blue in the presence of alkaline phosphatase.
Then 20 μL of the supernatant from each well was incubated with […] Quanti-blue substrate solution at 37° C. for 2 hrs and the absorbance was read at 620-655 nm using a spectrophotometer. The signaling pathway that TLR7 activation leads to downstream NF-κB activation has been widely accepted, and therefore similar reporter assay was modified for evaluating TLR7 antagonist.

Test [2] concerns the target T2, human TLR8 (Homo sapiens, UniProt Q9NR97).
T2 sequence (Q9NR97 27-1041): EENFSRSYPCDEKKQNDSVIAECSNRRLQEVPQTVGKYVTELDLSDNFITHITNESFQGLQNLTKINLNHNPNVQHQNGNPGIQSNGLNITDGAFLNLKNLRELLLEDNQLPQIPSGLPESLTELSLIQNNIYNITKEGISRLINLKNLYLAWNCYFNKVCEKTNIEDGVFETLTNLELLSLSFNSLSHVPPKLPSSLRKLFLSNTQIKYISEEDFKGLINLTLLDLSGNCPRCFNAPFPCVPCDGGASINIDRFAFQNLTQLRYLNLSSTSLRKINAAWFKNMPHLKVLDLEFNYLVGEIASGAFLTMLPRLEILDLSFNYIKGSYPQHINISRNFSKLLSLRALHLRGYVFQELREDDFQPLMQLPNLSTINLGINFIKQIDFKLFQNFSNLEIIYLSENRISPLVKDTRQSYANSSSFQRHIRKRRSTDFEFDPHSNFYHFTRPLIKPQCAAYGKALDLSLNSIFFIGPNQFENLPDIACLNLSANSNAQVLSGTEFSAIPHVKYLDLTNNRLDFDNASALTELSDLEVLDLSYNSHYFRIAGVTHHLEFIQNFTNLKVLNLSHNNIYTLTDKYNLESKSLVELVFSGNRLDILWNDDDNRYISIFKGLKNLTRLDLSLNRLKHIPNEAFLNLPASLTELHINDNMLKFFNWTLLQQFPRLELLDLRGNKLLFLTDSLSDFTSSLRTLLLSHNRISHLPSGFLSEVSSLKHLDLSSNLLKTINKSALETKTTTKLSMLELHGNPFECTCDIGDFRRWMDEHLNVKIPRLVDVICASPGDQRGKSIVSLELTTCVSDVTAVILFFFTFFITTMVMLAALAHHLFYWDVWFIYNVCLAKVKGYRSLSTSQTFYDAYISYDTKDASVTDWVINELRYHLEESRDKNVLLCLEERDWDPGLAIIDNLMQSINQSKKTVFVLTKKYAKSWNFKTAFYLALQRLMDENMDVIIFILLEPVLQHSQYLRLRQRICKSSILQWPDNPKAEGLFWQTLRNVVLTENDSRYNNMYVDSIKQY
Kind of test: HEK293-Blue-hTLR-8 cells assay.
Excerpt: HEK293-Blue-hTLR-8 Cells Assay:
A stable HEK293-Blue-hTLR-8 cell line was purchased from InvivoGen (Cat. #: hkb-htlr8, San Diego, Calif., USA). These cells were originally designed for studying the stimulation of human TLR8 by monitoring the activation of NF-κB. A SEAP (secreted embryonic alkaline phosphatase) reporter gene was placed under the control of the IFN-β minimal promoter fused to five NF-κB and AP-1-binding sites. The SEAP was induced by activating NF-κB and AP-1 via stimulating HEK-Blue hTLR8 cells with TLR8 ligands. Therefore, the reporter expression was declined by TLR8 antagonist under the stimulation of a ligand, such as R848, for incubation of 20 hrs. The cell culture supernatant SEAP reporter activity was determined using QUANTI-Blue™ kit (Cat. #: rep-qb1, Invivogen, San Diego, Calif., USA) at a wavelength of 640 nm, a detection medium that turns purple or blue in the presence of alkaline phosphatase.

`C[C@@H]1CN(c2ccc(C#N)c3ncccc23)C[C@@H]2CN(Cc3cccc4c3CNC4)CCN21` [Example 72, 5-[(4R,9aS)-8-(isoindolin-4-ylmethyl)-4-methyl-3,4,6,7,9,9a-hexahydro-1H-pyrazino[1,2-a]pyrazin-2-yl]quinoline-8-carbonitrile]: the IC50 in test [1] came out at 12 nM; in test [2], 15 nM.
Regarding `[2H]c1ccc2c(N3C[C@@H]4CN(c5ncc(C(=O)N6CC7(CN(C)C7)C6)cc5C)CCN4[C@@H](C)C3)ccc(C#N)c2n1` [Example 103, 5-[(4S,9aR)-4-methyl-8-[3-methyl-5-(6-methyl-2,6-diazaspiro[3.3]heptane-2-carbonyl)-2-pyridyl]-3,4,6,7,9,9a-hexahydro-1H-pyrazino[1,2-a]pyrazin-2-yl]-2-deuterio-quinoline-8-carbonitrile], the IC50 in test [1] is 6 nM; in test [2] it was 4 nM.
On the same counts, the results for `C[C@@H]1CN(c2ccc(C#N)c3ncccc23)C[C@@H]2CN(CCc3ccc(N4CC5(CNCCO5)C4)nc3)CCN21` [Example 59, 5-[(4R,9aS)-4-methyl-8-[2-[6-(5-oxa-2,8-diazaspiro[3.5]nonan-2-yl)-3-pyridyl]ethyl]-3,4,6,7,9,9a-hexahydro-1H-pyrazino[1,2-a]pyrazin-2-yl]quinoline-8-carbonitrile] are 9 nM and 28 nM.
For `C[C@@H]1CN(c2ccc(C#N)c3ncccc23)C[C@@H]2CN(CCc3cccc(N4CCN[C@@H](C)C4)n3)CCN21` [Example 21, 5-[(4R,9aS)-4-methyl-8-[2-[6-[(3S)-3-methylpiperazin-1-yl]-2-pyridyl]ethyl]-3,4,6,7,9,9a-hexahydro-1H-pyrazino[1,2-a]pyrazin-2-yl]quinoline-8-carbonitrile], in that order: 19 nM and 53 nM.
For `[2H]c1ccc2c(N3C[C@@H]4CN(c5ccc(CCN6C[C@H](OC)[C@@H](N)C6)cn5)CCN4[C@@H](C)C3)ccc(C#N)c2n1` [Example 122, 5-[(4S,9aR)-8-[5-[2-[(3S,4S)-3-amino-4-methoxy-pyrrolidin-1-yl]ethyl]-2-pyridyl]-4-methyl-3,4,6,7,9,9a-hexahydro-1H-pyrazino[1,2-a]pyrazin-2-yl]-2-deuterio-quinoline-8-carbonitrile], in that order: 9 nM and 3 nM.
As to `C[C@@H]1CN(c2ccc(C#N)c3ncccc23)C[C@@H]2CN(CCc3ccc(N4CCN[C@@H](C)C4)cn3)CCN21` [Example 20, 5-[(4R,9aS)-4-methyl-8-[2-[5-[(3S)-3-methylpiperazin-1-yl]-2-pyridyl]ethyl]-3,4,6,7,9,9a-hexahydro-1H-pyrazino[1,2-a]pyrazin-2-yl]quinoline-8-carbonitrile], the IC50 in test [1] worked out at 14 nM; in test [2] it was 51 nM.
On the same counts, the results for `Cc1nc(N2CCNCC2)ccc1CN1CCN2[C@@H](C1)CN(c1ccc(C#N)c3ncccc13)C[C@H]2C` [Example 60, 5-[(4R,9aS)-4-methyl-8-[(2-methyl-6-piperazin-1-yl-3-pyridyl)methyl]-3,4,6,7,9,9a-hexahydro-1H-pyrazino[1,2-a]pyrazin-2-yl]quinoline-8-carbonitrile] are 8 nM and 14 nM.
In the case of `[2H]c1ccc2c(N3C[C@@H]4CN(c5ccc(CCN6C[C@@H](N)[C@@H](F)C6)nc5)CCN4[C@@H](C)C3)ccc(C#N)c2n1` [Example 117, 5-[(4S,9aR)-8-[6-[2-[(3R,4S)-3-amino-4-fluoro-pyrrolidin-1-yl]ethyl]-3-pyridyl]-4-methyl-3,4,6,7,9,9a-hexahydro-1H-pyrazino[1,2-a]pyrazin-2-yl]-2-deuterio-quinoline-8-carbonitrile], the values for the IC50 in test [1] and in test [2] were 23 nM and 24 nM, respectively.
Take `C[C@@H]1CN(c2ccc(C#N)c3ncccc23)C[C@@H]2CN(CCc3ccc(N4CC5(CNCCO5)C4)cc3)CCN21` [Example 28, 5-[(4R,9aS)-4-methyl-8-[2-[4-(5-oxa-2,8-diazaspiro[3.5]nonan-2-yl)phenyl]ethyl]-3,4,6,7,9,9a-hexahydro-1H-pyrazino[1,2-a]pyrazin-2-yl]quinoline-8-carbonitrile]: the IC50 stood at 12 nM in test [1] and 29 nM in test [2].
On the same counts, the results for `CO[C@@H]1CN(c2ccc(CCN3CCN4[C@@H](C3)CN(c3ccc(C#N)c5ncccc35)C[C@H]4C)cc2)C[C@H]1N` [Example 26, 5-[(4R,9aS)-8-[2-[4-[(3R,4R)-3-amino-4-methoxy-pyrrolidin-1-yl]phenyl]ethyl]-4-methyl-3,4,6,7,9,9a-hexahydro-1H-pyrazino[1,2-a]pyrazin-2-yl]quinoline-8-carbonitrile] are 18 nM and 8 nM.
Consider `CO[C@H]1CN(c2ccc(CCN3CCN4[C@@H](C3)CN(c3ccc(C#N)c5ncccc35)C[C@H]4C)cn2)C[C@H]1N` [Example 24, 5-[(4R,9aS)-8-[2-[6-[(3R,4S)-3-amino-4-methoxy-pyrrolidin-1-yl]-3-pyridyl]ethyl]-4-methyl-3,4,6,7,9,9a-hexahydro-1H-pyrazino[1,2-a]pyrazin-2-yl]quinoline-8-carbonitrile], for which the IC50 in test [1] came to 8 nM; in test [2], 15 nM.
For `C[C@@H]1CN(c2ccc(C#N)c3ncccc23)C[C@@H]2CN(CCc3ccc(N4CCNCC4)cc3)CCN21` [Example 7, 5-[(4R,9aS)-4-methyl-8-[2-(4-piperazin-1-ylphenyl)ethyl]-3,4,6,7,9,9a-hexahydro-1H-pyrazino[1,2-a]pyrazin-2-yl]quinoline-8-carbonitrile], in that order: 5 nM and 30 nM.
For `Cc1cc(N2CCNCC2)ncc1N1CCN2CCN(c3ccc(C#N)c4ncccc34)CC2C1` (centres unmarked) [Example 38, 5-[2-(4-methyl-6-piperazin-1-yl-3-pyridyl)-3,4,6,7,9,9a-hexahydro-1H-pyrazino[1,2-a]pyrazin-8-yl]quinoline-8-carbonitrile], in that order: 2 nM and 8 nM.

Source of the values: patent US20220340597A1, “HEXAHYDRO-1H-PYRAZINO[1,2-A]PYRAZINE COMPOUNDS FOR THE TREATMENT OF AUTOIMMUNE DISEASE” (Hoffmann-La Roche Inc., priority 2019, published 2022).
